From patent US8163921B2, “Hepatitis C virus inhibitors” (Bristol-Myers Squibb Company, priority 2008, dated 2012)
pIC50: −log10 of the molar value. Where two headings read alike, the source gives them in different places.

Biological target: T1, HCV NS3/4A protease complex, BMS strain (UniProt P27958, C1454S/C1711G, species not given)
T1 construct: other: HCV NS3/4A enzyme assay; class symbols; numeric values; fused on or other part: three-lysine solubilising tail at the C-terminus of NS4A; purified on Ni-NTA from the pET21b vector (His tag implied)
Test: FRET peptide assay to monitor HCV NS3/4A proteolytic activity (BMS strain)
Type: biochemical, HCV genotype 1a
Conditions: read-out: IC50 Range, HCV NS3/4A enzyme assay
Source text: HCV NS3 protease complexes, derived from the BMS strain, H77 strain or J4L6S strain, were generated, as described below. These purified recombinant proteins were generated for use in a homogeneous assay (see below) to provide an indication of how effective compounds of the present disclosure would be in inhibiting HCV NS3 proteolytic activity.
Serum from an HCV-infected patient was obtained from Dr. T. Wright, San Francisco Hospital. An engineered full-length cDNA (compliment deoxyribonucleic acid) template of the HCV genome (BMS strain) was constructed from DNA fragments obtained by reverse transcription-PCR (RT-PCR) of serum RNA (ribonucleic acid) and using primers selected on the basis of homology between other genotype 1a strains. From the determination of the entire genome sequence, a genotype 1a was assigned to the HCV isolate according to the classification of Simmonds et al. (See P Simmonds, K A Rose, S Graham, S W Chan, F McOmish, B C Dow, E A Follett, P L Yap and H Marsden, J. Clin. Microbiol., 31(6), 1493-1503 (1993)). […] The infectious clones, H77 (1a genotype) and J4L6S (1b genotype) were obtained from R. Purcell (NIH) and the sequences are published in Genbank (AAB67036, see Yanagi, M., Purcell, R. H., Emerson, S. U. and Buldi, J. Proc. Natl. Acad. Sci. U.S.A. 94(16),8738-8743 (1997); AF054247, see Yanagi, M., St Claire, M., Shapiro, M., Emerson, S. U., Purcell, R. H. and Bukh, J, Virology 244 (1), 161-172. (1998)).
NS3/4A protease complex-containing fractions were pooled and loaded on a desalting column Superdex-S200 pre-equilibrated with buffer D (25 mM HEPES, pH 7.5, 20% glycerol, 300 mM NaCl, 0.2% TritonX-100, 10 mM βMB). Sample was loaded at a flow rate of 1 mL/min. NS3/4A protease complex-containing fractions were pooled and concentrated to approximately 0.5 mg/ml. The purity of the NS3/4A protease complexes, derived from the BMS, H77 and J4L6S strains, were judged to be greater than 90% by SDS-PAGE and mass spectrometry analyses. The enzyme was stored at −80° C., thawed on ice and diluted prior to use in assay buffer.
The purpose of this in vitro assay was to measure the inhibition of HCV NS3 protease complexes, derived from the BMS strain, H77 strain or J4L6S strain, as described above, by compounds of the present disclosure. This assay provides an indication of how effective compounds of the present disclosure would be in inhibiting HCV NS3 proteolytic activity.
In order to monitor HCV NS3/4A protease activity, an NS3/4A peptide substrate was used. The substrate was RET S1 (Resonance Energy Transfer Depsipeptide Substrate; AnaSpec, Inc. cat #22991)(FRET peptide), described by Taliani et al. in Anal. Biochem. 240(2):60-67 (1996). The sequence of this peptide is loosely based on the NS4A/NS4B natural cleavage site for the HCV NS3 protease except there is an ester linkage rather than an amide bond at the cleavage site. The peptide also contains a fluorescence donor, EDANS, near one end of the peptide and an acceptor, DABCYL, near the other end. The fluorescence of the peptide is quenched by […] resonance energy transfer (RET) between the donor and the acceptor, but as the NS3 protease cleaves the peptide the products are released from RET quenching and the fluorescence of the donor becomes apparent.
The peptide substrate was incubated with one of the three recombinant NS3/4A protease complexes, in the absence or presence of a compound of the present disclosure. The inhibitory effects of a compound were determined by monitoring the formation of fluorescent reaction product in real time using a Cytofluor Series 4000.
Assay buffer: 50 mM HEPES, pH 7.5; 0.15 M NaCl; 0.1% Triton; 15% Glycerol; 10 mM βME. Substrate: 2 μM final concentration (from a 2 mM stock solution in DMSO stored at −20° C.). HCV NS3/4A protease type 1a (1b), 2-3 nM final concentration (from a 5 μM stock solution in 25 mM HEPES, pH 7.5, 20% glycerol, 300 mM NaCl, 0.2% Triton-X100, 10 mM βME). […]

SMILES | pIC50 (numeric values) | pIC50 (class symbols)
C=C[C@@H]1C[C@]1(NC(=O)[C@@H]1C[C@@H](Oc2ncc(OC)c3ccc(Cl)cc23)CN1C(=O)C(Nc1ccc(-c2ccccc2)c(OC)c1)C(C)(C)C)C(=O)NS(=O)(=O)C1CC1 (single isomer, unassigned) [Example 18B] | 5.60 | –
C=C[C@@H]1C[C@]1(NC(=O)[C@@H]1C[C@@H](Oc2ncc(OC)c3ccc(Cl)cc23)CN1C(=O)[C@@H](Nc1nc(-c2ccc(O)cc2)cs1)C(C)(C)C)C(=O)NS(=O)(=O)C1CC1 [Example 60] | – | 7.70 to 9.00
C=C[C@@H]1C[C@]1(NC(=O)[C@@H]1C[C@@H](Oc2ncc(OC)c3ccc(Cl)cc23)CN1C(=O)[C@@H](Nc1nc(-c2cc(F)ccc2F)cs1)C(C)(C)C)C(=O)NS(=O)(=O)C1CC1 [Example 61] | – | 7.70 to 9.00
C=C[C@@H]1C[C@]1(NC(=O)[C@@H]1C[C@@H](Oc2ncc(OC)c3ccc(Cl)cc23)CN1C(=O)[C@@H](Nc1nc(-c2cc3cc(Cl)ccc3o2)cs1)C(C)(C)C)C(=O)NS(=O)(=O)C1CC1 [Example 62] | – | 7.70 to 9.00
C=C[C@@H]1C[C@]1(NC(=O)[C@@H]1C[C@@H](Oc2ncc(OC)c3ccc(Cl)cc23)CN1C(=O)[C@@H](Nc1nc(-c2ccc(C)c(C)c2)cs1)C(C)(C)C)C(=O)NS(=O)(=O)C1CC1 [Example 63] | – | 7.70 to 9.00
C=C[C@@H]1C[C@]1(NC(=O)[C@@H]1C[C@@H](Oc2ncc(OC)c3ccc(Cl)cc23)CN1C(=O)[C@@H](Nc1nc(-c2ccc(OC)c(F)c2)cs1)C(C)(C)C)C(=O)NS(=O)(=O)C1CC1 [Example 64] | – | 7.70 to 9.00
C=C[C@@H]1C[C@]1(NC(=O)[C@@H]1C[C@@H](Oc2ncc(OC)c3ccc(Cl)cc23)CN1C(=O)[C@@H](Nc1nc(-c2ccc(OCC)cc2)cs1)C(C)(C)C)C(=O)NS(=O)(=O)C1CC1 [Example 65] | – | 7.70 to 9.00
C=C[C@@H]1C[C@]1(NC(=O)[C@@H]1C[C@@H](Oc2ncc(OC)c3ccc(Cl)cc23)CN1C(=O)[C@@H](Nc1nc(-c2cc(F)cc(F)c2)cs1)C(C)(C)C)C(=O)NS(=O)(=O)C1CC1 [Example 66] | – | 7.70 to 9.00
C=C[C@@H]1C[C@]1(NC(=O)[C@@H]1C[C@@H](Oc2ncc(OC)c3ccc(Cl)cc23)CN1C(=O)[C@@H](Nc1nc(-c2ccccc2OC(F)(F)F)cs1)C(C)(C)C)C(=O)NS(=O)(=O)C1CC1 [Example 67] | – | 6.70 to 7.70
C=C[C@@H]1C[C@]1(NC(=O)[C@@H]1C[C@@H](Oc2ncc(OC)c3ccc(Cl)cc23)CN1C(=O)[C@@H](Nc1nc(-c2cc(C(F)(F)F)ccc2Cl)cs1)C(C)(C)C)C(=O)NS(=O)(=O)C1CC1 [Example 69] | – | 7.70 to 9.00
C=C[C@@H]1C[C@]1(NC(=O)[C@@H]1C[C@@H](Oc2ncc(OC)c3ccc(Cl)cc23)CN1C(=O)[C@@H](Nc1nc(-c2ccc(C(F)(F)F)cc2C(F)(F)F)cs1)C(C)(C)C)C(=O)NS(=O)(=O)C1CC1 [Example 70] | 7.05 | –
C=C[C@@H]1C[C@]1(NC(=O)[C@@H]1C[C@@H](Oc2ncc(OC)c3ccc(Cl)cc23)CN1C(=O)[C@@H](Nc1nc(-c2c(F)cccc2C(F)(F)F)cs1)C(C)(C)C)C(=O)NS(=O)(=O)C1CC1 [Example 71] | – | 6.70 to 7.70
C=C[C@@H]1C[C@]1(NC(=O)[C@@H]1C[C@@H](Oc2ncc(OC)c3ccc(Cl)cc23)CN1C(=O)[C@@H](Nc1nc(-c2cccc(C(F)(F)F)c2F)cs1)C(C)(C)C)C(=O)NS(=O)(=O)C1CC1 [Example 72] | – | 7.70 to 9.00
C=C[C@@H]1C[C@]1(NC(=O)[C@@H]1C[C@@H](Oc2ccc(OC)c3ccc(Cl)cc23)CN1C(=O)[C@@H](Nc1nc(-c2ccc(C(F)(F)F)cc2F)cs1)C(C)(C)C)C(=O)NS(=O)(=O)C1CC1 [Example 73] | – | 7.70 to 9.00
C=C[C@@H]1C[C@]1(NC(=O)[C@@H]1C[C@@H](Oc2ccc(OC)c3ccc(Cl)cc23)CN1C(=O)[C@@H](Nc1nc(-c2ccc(F)c(C(F)(F)F)c2)cs1)C(C)(C)C)C(=O)NS(=O)(=O)C1CC1 [Example 74] | 8.70 | –
C=C[C@@H]1C[C@]1(NC(=O)[C@@H]1C[C@@H](Oc2ncc(OC)c3ccc(Cl)cc23)CN1C(=O)[C@@H](Nc1nc(-c2ccc(C(F)(F)F)c(F)c2)cs1)C(C)(C)C)C(=O)NS(=O)(=O)C1CC1 [Example 75] | – | 7.70 to 9.00
C=C[C@@H]1C[C@]1(NC(=O)[C@@H]1C[C@@H](Oc2ncc(OC)c3ccc(Cl)cc23)CN1C(=O)[C@@H](Nc1nc(-c2cc(Cl)ccc2Cl)cs1)C(C)(C)C)C(=O)NS(=O)(=O)C1CC1 [Example 76] | – | 7.70 to 9.00
C=C[C@@H]1C[C@]1(NC(=O)[C@@H]1C[C@@H](Oc2ncc(OC)c3ccc(Cl)cc23)CN1C(=O)[C@@H](Nc1nc(-c2ccc(OC)c(OC)c2)cs1)C(C)(C)C)C(=O)NS(=O)(=O)C1CC1 [Example 77] | – | 7.70 to 9.00
C=C[C@@H]1C[C@]1(NC(=O)[C@@H]1C[C@@H](Oc2ncc(OC)c3ccc(Cl)cc23)CN1C(=O)[C@@H](Nc1nc(-c2cc(C)ccc2OC(F)F)cs1)C(C)(C)C)C(=O)NS(=O)(=O)C1CC1 [Example 78] | – | 7.70 to 9.00
C=C[C@@H]1C[C@]1(NC(=O)[C@@H]1C[C@@H](Oc2ncc(OC)c3ccc(Cl)cc23)CN1C(=O)[C@@H](Nc1nc(-c2cc(F)c(F)c(F)c2)cs1)C(C)(C)C)C(=O)NS(=O)(=O)C1CC1 [Example 79] | – | 7.70 to 9.00
C=C[C@@H]1C[C@]1(NC(=O)[C@@H]1C[C@@H](Oc2ncc(OC)c3ccc(Cl)cc23)CN1C(=O)[C@@H](Nc1nc(-c2cccc(F)c2F)cs1)C(C)(C)C)C(=O)NS(=O)(=O)C1CC1 [Example 80] | – | 7.70 to 9.00
C=C[C@@H]1C[C@]1(NC(=O)[C@@H]1C[C@@H](Oc2ncc(OC)c3ccc(Cl)cc23)CN1C(=O)[C@@H](Nc1nc(-c2cc(F)c(F)cc2F)cs1)C(C)(C)C)C(=O)NS(=O)(=O)C1CC1 [Example 81] | – | 7.70 to 9.00
C=C[C@@H]1C[C@]1(NC(=O)[C@@H]1C[C@@H](Oc2ncc(OC)c3ccc(Cl)cc23)CN1C(=O)[C@@H](Nc1nc(-c2ccc(F)cc2F)c(C)s1)C(C)(C)C)C(=O)NS(=O)(=O)C1CC1 [Example 82] | – | 7.70 to 9.00
C=C[C@@H]1C[C@]1(NC(=O)[C@@H]1C[C@@H](Oc2ncc(OC)c3ccc(Cl)cc23)CN1C(=O)[C@@H](Nc1nc(-c2c(F)cccc2F)cs1)C(C)(C)C)C(=O)NS(=O)(=O)C1CC1 [Example 83] | – | 7.70 to 9.00
C=C[C@@H]1C[C@]1(NC(=O)[C@@H]1C[C@@H](Oc2ncc(OC)c3ccc(Cl)cc23)CN1C(=O)[C@@H](Nc1nc(-c2sc3ccccc3c2C)cs1)C(C)(C)C)C(=O)NS(=O)(=O)C1CC1 [Example 84] | – | 7.70 to 9.00
C=C[C@@H]1C[C@]1(NC(=O)[C@@H]1C[C@@H](Oc2ncc(OC)c3ccc(Cl)cc23)CN1C(=O)[C@@H](Nc1nc(-c2cc(-c3ccc(Cl)cc3Cl)no2)cs1)C(C)(C)C)C(=O)NS(=O)(=O)C1CC1 [Example 86] | 8.70 | –
C=C[C@@H]1C[C@]1(NC(=O)[C@@H]1C[C@@H](Oc2ncc(OC)c3ccc(Cl)cc23)CN1C(=O)[C@@H](Nc1nc(-c2cc3ccccc3o2)cs1)C(C)(C)C)C(=O)NS(=O)(=O)C1CC1 [Example 87] | – | 7.70 to 9.00
C=C[C@@H]1C[C@]1(NC(=O)[C@@H]1C[C@@H](Oc2ncc(OC)c3ccc(Cl)cc23)CN1C(=O)[C@@H](Nc1nc(-c2cc(-c3ccc(Cl)cc3)no2)cs1)C(C)(C)C)C(=O)NS(=O)(=O)C1CC1 [Example 88] | – | 7.70 to 9.00
